Measurements: PubChem BioAssay AID2060329 (Molecular Pharmacology Branch, DTP, NCI, 2025)

Tested on: MCF7 multi-cell spheroids with HUVEC/MSC, viability
Assay: Anticancer human tumor MCF7 cell line growth inhibition [IpAb];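 further: spheroids exposed to agents for seven days before readout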
Conditions: for IC50: curve of first compound; for viability, T/C: stronger effect = lower value; active means viability on the fitted dose curve at most 10% of control; inactive means the rest
Description: Combinatorial screen of targeted agents with ipatasertib and abemaciclib in multi-cell type tumor spheroids
A high-throughput screen of multi-cell type tumor spheroids was designed to identify active combinations of targeted small molecules and ipatasertib or abemaciclib. Complex spheroids include a stromal component modeled by human endothelial cells (HUVEC) and fibroblasts modeled by human mesenchymal stem cells (MSCs). The concentration ranges selected for each drug and investigational agent were based upon clinically achievable concentrations if the clinical Cmax of the agent was known.
Compounds. The drugs and investigational agents: ipatasertib (NSC767898), abemaciclib(NSC768073), selumetinib (NSC741078), trametinib (758246), adavosertib (NSC754352), everolimus (NSC733504), sapanisertib (NSC764658), vemurafenib (NSC761431), venetoclax (NSC766270), copanlisib (NSC809693), apelisib (NSC765974), palbociblib (NSC758247), vemurafenib (NSC761431), dabrafenib (NSC764134), ravoxertinib (NSC781343), BMS-387032 (NSC767048), sotorasib (NSC818433), talazoparib (NSC767125) and afursertib (NSC778305), were obtained from the National Cancer Institute (NCI) Developmental Therapeutics Program Chemical Repository. The FDA-approved anticancer drug set is available from the NCI Developmental Therapeutics Program. […] The stock solutions were prepared in dimethyl sulfoxide (DMSO, Sigma-Aldrich, St. Louis, MO, cat. D2650) at 800-fold the tested concentration and stored at -70 degrees C prior to their use. All drugs and investigational agents were tested over a range starting from a high concentration at or near the clinical Cmax and decreasing in half-log increments. If the clinical Cmax for an agent had not been determined, the highest concentration tested was 10 microM.
NCI60 Cell Culture. NCI60 cell lines were obtained from the NCI Developmental Therapeutics Program Tumor Repository. For each lot of cells, the Repository performed Applied Biosystems AmpFLSTR Identifiler testing with PCR amplification to confirm consistency with the published Identifier STR profile for each cell line. Cells were kept in continuous culture for no more than 20 passages. The optimal seeding densities for each of the cell lines at each time point assessed were determined prior to performing the concentration response studies. Briefly, the NCI60 human tumor lines were grown as monolayers in RPMI 1640 medium supplemented with 10% FBS and 2 mmol/L L-glutamine.
An additional 9 lines were from the NCI60 cell line panel including MDA-MB-231 breast carcinoma, MDA-MB-468 breast carcinoma, MCF7 breast carcinoma, Hs578T breast carcinoma, MALME-3M melanoma, SK-MEL-2 melanoma, SK-OV-3 ovarian carcinoma, DU-145 prostate carcinoma, PC-3 prostate carcinoma, all cell lines along with major genetic alterations are listed on Table 2. Pooled donor human umbilical vein endothelial cells (HUVEC, Lonza, cat. CC-2519) and human mesenchymal stem cells (hMSC, Lonza, cat. PT-2501) were purchased from Lonza (Walkersville, MD).
PDMR cell lines were grown in complete medium (DC medium): Dulbecco's modified Eagle's medium (DMEM)/F12 supplemented with 5% fetal bovine serum (FBS), 2 mM L-glutamine, 100 U/mL penicillin and 100 µg/ml streptomycin, 0.4 µg/ml hydrocortisone, 10 ng/ml epidermal growth factor (EGF) recombinant human protein, 24 µg/mL adenine, and 0.1 mg/mL primocin. During culture from frozen stock vials, PDMR cells were cultured in the same medium containing 10 µM Y-27632 (see Table 3). The PDCs were cultured in complete DMEM/F12 media without 10 microM Y-27632 dihydrochloride for at least two passages prior to the screen. The pooled donor HUVEC and hMSC were cultured in endothelial cell growth medium 2 (PromoCell, Heidelberg, Germany, cat. C-22011) and mesenchymal stem cell growth medium 2 (PromoCell, cat. C-28009), respectively. For all experiments, HUVEC and hMSC were used at passages </=5.
[…]

[1] = second compound 0.1 µM, first compound 0.0316 µM
[2] = second compound 0.1 µM, first compound 0.1 µM
[3] = second compound 0.1 µM, first compound 0.316 µM
[4] = second compound 0.1 µM, first compound 1 µM
[5] = second compound 0.316 µM, first compound 0.0316 µM
[6] = second compound 0.316 µM, first compound 0.1 µM
[7] = second compound 0.316 µM, first compound 0.316 µM
[8] = second compound 0.316 µM, first compound 1 µM
[9] = second compound 1 µM, first compound 0.0316 µM
[10] = second compound 1 µM, first compound 0.1 µM
[11] = second compound 1 µM, first compound 0.316 µM
[12] = second compound 1 µM, first compound 1 µM
[13] = second compound 3.16 µM, first compound 0.0316 µM
[14] = second compound 3.16 µM, first compound 0.1 µM
[15] = second compound 3.16 µM, first compound 0.316 µM
[16] = second compound 3.16 µM, first compound 1 µM
[17] = second compound 10 µM, first compound 0.0316 µM
[18] = second compound 10 µM, first compound 0.1 µM
[19] = second compound 10 µM, first compound 0.316 µM
[20] = second compound 10 µM, first compound 1 µM

CC(=O)c1c(C)c2cnc(Nc3ccc(N4CCNCC4)cn3)nc2n(C2CCCC2)c1=O + CC(C)NCC(C(=O)N1CCN(c2ncnc3c2C(C)CC3O)CC1)c1ccc(Cl)cc1
> 300 nM: IC50 (second compound 0.1 µM) | IC50 (second compound 0.316 µM)
< 0.949 nM: IC50 (second compound 10 µM)
23.6 nM: IC50 (second compound 3.16 µM)
inactive: viability, T/C (second compound 0.1 µM, first compound 0.000949 µM) 96.3% | viability, T/C (second compound 0.1 µM, first compound 0.003 µM) 100% | viability, T/C (second compound 0.1 µM, first compound 0.00949 µM) 97.1% | viability, T/C (second compound 0.1 µM, first compound 0.03 µM) 90.7% | viability, T/C (second compound 0.1 µM, first compound 0.0949 µM) 89.6% | viability, T/C (second compound 0.1 µM, first compound 0.3 µM) 86.8% | viability, T/C (second compound 0.316 µM, first compound 0.000949 µM) 80.9% | viability, T/C (second compound 0.316 µM, first compound 0.003 µM) 82.7% | viability, T/C (second compound 0.316 µM, first compound 0.00949 µM) 87.9% | viability, T/C (second compound 0.316 µM, first compound 0.03 µM) 81.8% | viability, T/C (second compound 0.316 µM, first compound 0.0949 µM) 77.1% | viability, T/C (second compound 0.316 µM, first compound 0.3 µM) 73.9% | viability, T/C (second compound 1 µM, first compound 0.000949 µM) 67.4% | viability, T/C (second compound 1 µM, first compound 0.003 µM) 71.4% | viability, T/C (second compound 1 µM, first compound 0.00949 µM) 63.1% | viability, T/C (second compound 1 µM, first compound 0.03 µM) 62.4% | viability, T/C (second compound 1 µM, first compound 0.0949 µM) 55.5% | viability, T/C (second compound 1 µM, first compound 0.3 µM) 49.9% | viability, T/C (second compound 3.16 µM, first compound 0.000949 µM) 45.1% | viability, T/C (second compound 3.16 µM, first compound 0.003 µM) 57.4% | viability, T/C (second compound 3.16 µM, first compound 0.00949 µM) 52.2% | viability, T/C (second compound 3.16 µM, first compound 0.03 µM) 48.2% | viability, T/C (second compound 3.16 µM, first compound 0.0949 µM) 46.9% | viability, T/C (second compound 3.16 µM, first compound 0.3 µM) 39.4% | viability, T/C (second compound 10 µM, first compound 0.000949 µM) 41.6% | viability, T/C (second compound 10 µM, first compound 0.003 µM) 42.7% | viability, T/C (second compound 10 µM, first compound 0.00949 µM) 36.9% | viability, T/C (second compound 10 µM, first compound 0.03 µM) 34% | viability, T/C (second compound 10 µM, first compound 0.0949 µM) 34.5% | viability, T/C (second compound 10 µM, first compound 0.3 µM) 23.2%
275 nM: IC50 (second compound 1 µM)

COc1c(OCCCN2CCOCC2)ccc2c3n(c(=NC(=O)c4cnc(N)nc4)nc12)CCN3 + CC(C)NCC(C(=O)N1CCN(c2ncnc3c2C(C)CC3O)CC1)c1ccc(Cl)cc1
< 3.16 nM: IC50 (second compound 3.16 µM) | IC50 (second compound 10 µM)
49.2 nM: IC50 (second compound 0.1 µM)
inactive: viability, T/C (second compound 0.1 µM, first compound 0.00316 µM) 86% | viability, T/C (second compound 0.1 µM, first compound 0.01 µM) 80.2% | viability, T/C [1] 58.3% | viability, T/C [2] 37% | viability, T/C [3] 9.3% | viability, T/C (second compound 0.316 µM, first compound 0.00316 µM) 75.1% | viability, T/C (second compound 0.316 µM, first compound 0.01 µM) 65.8% | viability, T/C [5] 49.8% | viability, T/C [6] 30.5% | viability, T/C [7] 9.83% | viability, T/C (second compound 1 µM, first compound 0.00316 µM) 61.9% | viability, T/C (second compound 1 µM, first compound 0.01 µM) 56.4% | viability, T/C [9] 37.7% | viability, T/C [10] 22% | viability, T/C [11] 10.7% | viability, T/C [12] 11.2% | viability, T/C (second compound 3.16 µM, first compound 0.00316 µM) 45.9% | viability, T/C (second compound 3.16 µM, first compound 0.01 µM) 48.7% | viability, T/C [13] 35.4% | viability, T/C [14] 32% | viability, T/C [15] 9.39% | viability, T/C (second compound 10 µM, first compound 0.00316 µM) 33.8% | viability, T/C (second compound 10 µM, first compound 0.01 µM) 34.9% | viability, T/C [17] 37.4% | viability, T/C [18] 21.7% | viability, T/C [19] 6.28%
active: viability, T/C [4] 11.8% | viability, T/C [8] 12.4% | viability, T/C [16] 10.6% | viability, T/C [20] 5.07%
14.6 nM: IC50 (second compound 1 µM)
31.7 nM: IC50 (second compound 0.316 µM)

Cc1nc(NC(=O)N2CCCC2C(N)=O)sc1-c1ccnc(C(C)(C)C(F)(F)F)c1 (stereo not given) + CC(C)NCC(C(=O)N1CCN(c2ncnc3c2C(C)CC3O)CC1)c1ccc(Cl)cc1
inactive: viability, T/C [1] 68.9% | viability, T/C [2] 66.4% | viability, T/C [3] 56.9% | viability, T/C [4] 52.7% | viability, T/C (second compound 0.1 µM, first compound 3.16 µM) 49.6% | viability, T/C (second compound 0.1 µM, first compound 10 µM) 20.4% | viability, T/C [5] 62.4% | viability, T/C [6] 57% | viability, T/C [7] 50.3% | viability, T/C [8] 42.8% | viability, T/C (second compound 0.316 µM, first compound 3.16 µM) 37.8% | viability, T/C (second compound 0.316 µM, first compound 10 µM) 19.9% | viability, T/C [9] 45.8% | viability, T/C [10] 52.7% | viability, T/C [11] 36.2% | viability, T/C [12] 34.7% | viability, T/C (second compound 1 µM, first compound 3.16 µM) 34.4% | viability, T/C (second compound 1 µM, first compound 10 µM) 9.85% | viability, T/C [13] 36.9% | viability, T/C [14] 38.1% | viability, T/C [15] 35.4% | viability, T/C [16] 29.5% | viability, T/C (second compound 3.16 µM, first compound 3.16 µM) 27.1% | viability, T/C (second compound 3.16 µM, first compound 10 µM) 7.55% | viability, T/C [17] 28.6% | viability, T/C [18] 25.9% | viability, T/C [19] 26.1% | viability, T/C [20] 21.5% | viability, T/C (second compound 10 µM, first compound 3.16 µM) 28.4% | viability, T/C (second compound 10 µM, first compound 10 µM) 1.68%
1810 nM: IC50 (second compound 0.1 µM)
< 31.6 nM: IC50 (second compound 1 µM) | IC50 (second compound 3.16 µM) | IC50 (second compound 10 µM)
398 nM: IC50 (second compound 0.316 µM)
